Experiment [1] deals with T1, mppGalNAcT-1 (Mus musculus, UniProt O08912).
T1 construct: plasmids encoding truncated secreted ppGalNAcTs-1 to −5, -7, -10 and -11; made in house; host or cells: COS-7
T1 sequence (O08912 29-559 limits assumed): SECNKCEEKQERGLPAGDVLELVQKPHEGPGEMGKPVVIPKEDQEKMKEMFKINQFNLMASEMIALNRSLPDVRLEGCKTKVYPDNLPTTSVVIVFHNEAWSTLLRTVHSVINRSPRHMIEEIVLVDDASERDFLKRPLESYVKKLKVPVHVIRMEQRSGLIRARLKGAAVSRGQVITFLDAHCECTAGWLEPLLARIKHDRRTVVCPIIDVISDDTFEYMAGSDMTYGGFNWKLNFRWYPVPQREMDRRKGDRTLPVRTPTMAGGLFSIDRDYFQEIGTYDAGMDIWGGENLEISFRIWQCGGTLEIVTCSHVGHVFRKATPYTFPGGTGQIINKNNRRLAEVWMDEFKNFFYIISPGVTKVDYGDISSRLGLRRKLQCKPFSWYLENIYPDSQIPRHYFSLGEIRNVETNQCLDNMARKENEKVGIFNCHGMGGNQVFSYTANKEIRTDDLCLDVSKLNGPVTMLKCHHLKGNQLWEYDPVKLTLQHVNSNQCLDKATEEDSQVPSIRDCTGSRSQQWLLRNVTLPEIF
In words: ELLA for ppGalNAcTs, mppGalNAcT-1. The format is biochemical, murine. To be noted: for IC50: ELLA, 20 μM UDP-GalNAc, 50 μM EA2 peptide 4; for mode of inhibition with respect to UDP-GalNAc: mppGalNAcT-1; for Ki: mppGalNAcT-1, with respect to UDP-GalNAc, read-out: KI versus UDP-GalNAc. As to the method: (§1) COS-7 cells were transiently transfected with plasmids encoding truncated secreted ppGalNAcTs-1 to −5, -7, -10 and -11 as previously described. Hagen et al. (1997) J. Biol. Chem. 272:13843-13848. The crude conditioned medium was used as the enzyme source.
Standard reaction conditions for ppGalNAcT assays were as follows. The reaction mixture contained the following components in a final volume of 25 μL: 10 mM MnCl2, 40 mM sodium cacodylate, 40 mM β-mercaptoethanol, 0.1% Triton X-100, pH 6.5, 5 μL of conditioned media, and various concentrations of EA2 peptide 4, UDP-GalNAc and inhibitor. All uridine-based compounds were dissolved in dimethyl sulfoxide (DMSO). The concentration of DMSO in the reaction mixture was limited to 2% (v/v), as higher concentrations decreased ppGalNAcT activity. For inhibitor assays, reaction mixtures for positive controls also contained 2% DMSO. Unless otherwise stated, inhibitor assays were performed using 20 μM UDP-GalNAc and 50 μM EA2 peptide 4, the KM values for both substrates. Reactions were incubated at 37° C. and were terminated by the addition of 10 μL of 0.1 M EDTA. All experiments were performed in duplicate. Reaction rates were linear over the period monitored (20-30 min).
96-Well NeutrAvidin-coated plates were prewashed 3 times with 200 μL of wash buffer (25 mM Tris, 150 mM NaCl, 0.1% bovine serum albumin (BSA) (w/v), and 0.05% Tween (v/v), pH 7.2). Reactions were then transferred to the 96-well plates, incubated for 1 hour at room temperature (rt) and subsequently washed 3 times with 200 μL of phosphate-buffered saline (PBS) containing 0.5% BSA and 0.05% Tween, pH 7.1. A 100-μL solution of HPA-HRP in standard PBS buffer (1 μg/mL, pH 7.4) was added and the reaction was incubated for 1 h at rt. After 3 washes with 200 μL of PBS, bound HPA-HRP was quantified by the addition of 100 μL of TMB peroxide solution. The solutions were incubated for 5-15 min in the dark at rt. HRP activity was terminated by the addition of 50 μL of 2 N H2SO4 and the resulting solution was analyzed at 450 nm using a UV/Vis microtiter plate reader. The amount of product generated by the ppGalNAcT was extrapolated from absorbance values using an equation fit to the standard curve derived from Origin 6.1 software.
In order to screen the library in high-throughput format, a non-radioactive enzyme linked lectin assay (ELLA) for ppGalNAcTs was developed. As an acceptor substrate, the EA2 peptide (PTTDSTTPAPTTK; SEQ ID NO:12), a fragment of rat submandibular mucin, was chosen. Albone et al. (1994) J. Biol. Chem. 269:16845-16852. This peptide has been previously shown to be an efficient substrate for murine (m) ppGalNAcT-1 and is preferentially glycosylated at the fourth Thr residue from the N-terminus (underlined). Ten Hagen et al. (2001, supra). Biotinylation of EA2 allowed capture of (glyco)peptides onto 96-well NeutrAvidin-coated plates. The GalNAc-modified glycopeptide product could be detected using the α-GalNAc-specific lectin Helix pomatia agglutinin (HPA) (Hammarstrom et al. (1977) Biochemistry 16:2750-2755) conjugated to horseradish peroxidase (HRP). The bound HRP was quantified by addition of a chromogenic substrate.

Experiment [2] concerns the target T2, mppGalNAcT-11 (Mus musculus, UniProt Q921L8).
T2 construct: plasmids encoding truncated secreted ppGalNAcTs-1 to −5, -7, -10 and -11; made in house; host or cells: COS-7
T2 sequence (Q921L8 30-608 limits assumed): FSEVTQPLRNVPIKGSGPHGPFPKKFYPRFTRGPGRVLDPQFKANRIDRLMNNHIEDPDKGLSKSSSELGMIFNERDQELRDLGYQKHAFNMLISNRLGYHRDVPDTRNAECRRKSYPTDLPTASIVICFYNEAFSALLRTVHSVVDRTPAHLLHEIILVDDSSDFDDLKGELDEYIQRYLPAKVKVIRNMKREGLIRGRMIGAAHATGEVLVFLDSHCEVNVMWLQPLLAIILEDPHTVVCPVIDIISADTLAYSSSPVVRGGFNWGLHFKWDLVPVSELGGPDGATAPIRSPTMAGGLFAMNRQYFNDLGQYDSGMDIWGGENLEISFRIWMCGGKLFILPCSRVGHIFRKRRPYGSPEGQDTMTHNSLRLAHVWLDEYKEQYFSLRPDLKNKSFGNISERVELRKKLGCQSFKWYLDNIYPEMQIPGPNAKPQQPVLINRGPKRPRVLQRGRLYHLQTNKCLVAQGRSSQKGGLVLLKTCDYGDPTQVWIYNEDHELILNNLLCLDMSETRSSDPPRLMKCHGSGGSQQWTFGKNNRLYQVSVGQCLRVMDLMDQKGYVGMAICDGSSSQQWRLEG
The experiment is described as follows: ELLA for ppGalNAcTs, mppGalNAcT-11. The note with it: 20 μM UDP-GalNAc, 50 μM EA2 peptide 4. The class given is biochemical, murine. As to the method:
as §1
Standard reaction conditions for ppGalNAcT assays were as follows. The reaction mixture contained the following components in a final volume of 25 μL: 10 mM MnCl2, 40 mM sodium cacodylate, 40 mM β-mercaptoethanol, 0.1% Triton X-100, pH 6.5, 5 μL of conditioned media, and various concentrations of EA2 peptide 4, UDP-GalNAc and inhibitor. All uridine-based compounds were dissolved in dimethyl sulfoxide (DMSO). […] Reaction rates were linear over the period monitored (20-30 min).
96-Well NeutrAvidin-coated plates were prewashed 3 times with 200 μL of wash buffer (25 mM Tris, 150 mM NaCl, 0.1% bovine serum albumin (BSA) (w/v), and 0.05% Tween (v/v), pH 7.2). […] After 3 washes with 200 μL of PBS, bound HPA-HRP was quantified by the addition of 100 μL of TMB peroxide solution. […] HRP activity was terminated by the addition of 50 μL of 2 N H2SO4 and the resulting solution was analyzed at 450 nm using a UV/Vis microtiter plate reader. The amount of product generated by the ppGalNAcT was extrapolated from absorbance values using an equation fit to the standard curve derived from Origin 6.1 software.

Each structure is given as a SMILES string.

With `O=c1ccn([C@@H]2O[C@H](CON=Cc3ccc(O)c(O)c3O)[C@@H](O)[C@H]2O)c(=O)[nH]1` [1-68A], in experiment [1], the IC50 worked out at 21 ± 1 µM, the “mode of inhibition with respect to UDP-GalNAc” value was “competitive” and the Ki was 7.8 ± 0.1 µM. The same compound gave an IC50 in experiment [2] of 39 ± 3 µM.

In the case of `O=C(CON=Cc1ccc(O)c(O)c1O)NC[C@H]1O[C@@H](n2ccc(=O)[nH]c2=O)[C@H](O)[C@@H]1O` [2-68A], in experiment [1], 24 ± 2 µM corresponded to half-maximal inhibition (IC50), the “mode of inhibition with respect to UDP-GalNAc” value is listed as “competitive” and the Ki stood at 7.8 ± 1 µM. This compound displayed an IC50 in experiment [2] of 32 ± 3 µM.

Values taken from US20060063736A1, “Compositions and methods for inhibiting mucin-type O-linked glycosylation” (priority 2004, published 2006).
